This passage reports TGI and GI50 results from PubChem BioAssay (NCI).

Among the test systems are NCI-H522 lung; SF-295 CNS; HCT-15 colon; LOX IMVI melanoma; IGROV1 ovarian; SW-620 colon; UO-31 renal; OVCAR-5 ovarian; CCRF-CEM leukemia; MOLT-4 leukemia.
What all share (assay): inhibition of tumour cell growth, NCI panel, 48 h

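Five compound concentrations were applied to cells in 96-well plates for 48 hours; endpoints were derived by simple linear interpolation of the resulting dose-response curve. Abbreviation: GI50, concentration required for 50% inhibition of growth. Definition used: TGI = concentration required for complete inhibition of growth.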

Take `NNC(=O)CNc1cccc(Br)c1`: the TGI in the assay on NCI-H522 lung, in the assay on SF-295 CNS, in the assay with HCT-15 colon, in the assay on LOX IMVI melanoma, in the assay with IGROV1 ovarian and in the assay on SW-620 colon was above 100 µM in each case. Further, the TGI in the assay with UO-31 renal and in the assay with OVCAR-5 ovarian was above 100 µM in each case.

For `Cc1ccccc1C(=O)c1cc(O)ccc1O`, the TGI in the assay on NCI-H522 lung is 99.1 µM; in the assay with SF-295 CNS, above 100 µM; with HCT-15 colon it was above 100 µM; in the assay on CCRF-CEM leukemia, above 100 µM; in the assay on IGROV1 ovarian, above 100 µM; in the assay on SW-620 colon it was above 100 µM. For the same molecule, the TGI in the assay on MOLT-4 leukemia, in the assay with UO-31 renal and in the assay on OVCAR-5 ovarian was above 100 µM each time.

With `CCCCCCCCCCCCCCCC(=O)OCCOCCOCCOCc1ccccc1`, the TGI in the assay on SF-295 CNS was 98.4 µM; in the assay with LOX IMVI melanoma, above 100 µM; in the assay on IGROV1 ovarian it was above 100 µM; in the assay on SW-620 colon, above 100 µM; in the assay with OVCAR-5 ovarian, above 100 µM.

Regarding `C#CC1/C(=C\C(=O)OC)CCCC1O` (centres undefined), the TGI in the assay on NCI-H522 lung, with SF-295 CNS, with HCT-15 colon, in the assay with CCRF-CEM leukemia, in the assay on IGROV1 ovarian and in the assay with SW-620 colon was above 100 µM each time. For the same molecule, the TGI in the assay on MOLT-4 leukemia, with UO-31 renal and with OVCAR-5 ovarian was above 100 µM each time.

On to `CN(C)CC[C@H](CSc1ccccc1)Nc1ccc(S(=O)(=O)NC(=O)c2ccc(N3CCN(Cc4ccccc4-c4ccc(Cl)cc4)CC3)cc2)cc1[N+](=O)[O-]`, for which the GI50 was 3.6 µM in the assay with SF-295 CNS; 5.09 µM in the assay with HCT-15 colon; 0.36 µM in the assay with CCRF-CEM leukemia; 2.77 µM in the assay with LOX IMVI melanoma; 3.05 µM with IGROV1 ovarian; 4.02 µM in the assay on SW-620 colon. Further, the GI50 was 0.392 µM in the assay on MOLT-4 leukemia, 3.53 µM in the assay on UO-31 renal and 5.07 µM in the assay with OVCAR-5 ovarian. Further, the TGI is above 100 µM in the assay with SF-295 CNS; above 100 µM with HCT-15 colon; above 100 µM in the assay with CCRF-CEM leukemia; above 100 µM with LOX IMVI melanoma; above 51.6 µM in the assay with IGROV1 ovarian; above 61.1 µM in the assay with SW-620 colon. Further, the TGI in the assay on MOLT-4 leukemia worked out at 2.64 µM; in the assay on UO-31 renal, 27.6 µM; in the assay on OVCAR-5 ovarian, 41.1 µM.

Regarding `COc1ccc(-c2ccc(=O)oc2C#Cc2cc(OC)c(OC)c(OC)c2)cc1O`, the GI50 in the assay with NCI-H522 lung is 0.172 µM; with SF-295 CNS, 0.495 µM; with HCT-15 colon it was 0.324 µM; in the assay on CCRF-CEM leukemia, 0.331 µM; with LOX IMVI melanoma, 0.399 µM; in the assay with SW-620 colon, 0.15 µM. The figures for the GI50 in the assay on MOLT-4 leukemia, in the assay with UO-31 renal and with OVCAR-5 ovarian were 0.952 µM, 0.585 µM and 2.49 µM, respectively. In addition, the TGI in the assay with NCI-H522 lung was 0.852 µM; with SF-295 CNS, above 100 µM; in the assay on HCT-15 colon, above 100 µM; in the assay on CCRF-CEM leukemia, above 100 µM; in the assay with LOX IMVI melanoma it was above 100 µM; in the assay with SW-620 colon, above 100 µM. Moreover, the TGI is above 100 µM with MOLT-4 leukemia and 33.9 µM in the assay on OVCAR-5 ovarian.

With `O=C1N=C2Sc3ccc4ccccc4c3N2C1=O`, the TGI was 36.5 µM in the assay on SF-295 CNS; 61.9 µM in the assay with HCT-15 colon; above 100 µM in the assay on CCRF-CEM leukemia; 38.2 µM in the assay with LOX IMVI melanoma; 57.1 µM with IGROV1 ovarian; 49.1 µM in the assay with SW-620 colon. Moreover, the TGI with MOLT-4 leukemia was above 100 µM; in the assay on UO-31 renal it was 33.3 µM; with OVCAR-5 ovarian, above 100 µM.

With `CCC(C)(C)c1ccc(OCCCCNC(=O)c2ccc3ccccc3c2O)c(C(C)(C)CC)c1`, the TGI with NCI-H522 lung was 91.2 µM; with SF-295 CNS, above 100 µM; in the assay on HCT-15 colon it was 28.5 µM; in the assay with CCRF-CEM leukemia it was above 100 µM; with IGROV1 ovarian it was above 100 µM; in the assay on SW-620 colon, 87 µM. The TGI in the assay on MOLT-4 leukemia, in the assay on UO-31 renal and with OVCAR-5 ovarian was above 100 µM each time.

For `CN(C)C(=S)/N=c1\sn(C)/c(=N\C(=S)N(C)C)n1C`, the TGI with NCI-H522 lung, in the assay with SF-295 CNS, in the assay with HCT-15 colon, in the assay on LOX IMVI melanoma, in the assay on IGROV1 ovarian and in the assay on SW-620 colon was above 100 µM each time. In addition, the TGI with MOLT-4 leukemia, with UO-31 renal and in the assay with OVCAR-5 ovarian was above 100 µM each time.

In the case of `COC(=O)/C(C#N)=C1\N=NNN1c1ccc(OC)cc1`, the TGI with NCI-H522 lung, in the assay with SF-295 CNS, in the assay on HCT-15 colon, in the assay with CCRF-CEM leukemia, in the assay on LOX IMVI melanoma and in the assay on IGROV1 ovarian was above 100 µM each time. Moreover, the TGI with SW-620 colon, with MOLT-4 leukemia and in the assay with UO-31 renal was above 100 µM throughout.

Take `COc1ccc2c(c1OCC(=O)O)C(=O)C(CCC(=O)O)CC2` (centres undefined): the TGI in the assay on SF-295 CNS, with HCT-15 colon, in the assay on CCRF-CEM leukemia, in the assay on LOX IMVI melanoma, with IGROV1 ovarian and in the assay with SW-620 colon was above 100 µM in each case. This molecule also had a TGI with MOLT-4 leukemia above 100 µM.

For `COC1C(OC(=S)Nc2ccccc2)c2ccccc2N1C(C)=O` (centres undefined), the TGI in the assay with SF-295 CNS, in the assay with HCT-15 colon, in the assay on CCRF-CEM leukemia, with IGROV1 ovarian, in the assay on SW-620 colon and with MOLT-4 leukemia was above 100 µM each time. The same molecule had a TGI in the assay with UO-31 renal above 100 µM.

As for `COc1ccc(CCN(C)C2CCC(C#N)(c3ccc(OC)c(OC)c3)CC2)cc1OC` (centres undefined), the TGI in the assay on SF-295 CNS, with HCT-15 colon, with CCRF-CEM leukemia, in the assay on LOX IMVI melanoma, with IGROV1 ovarian and with SW-620 colon was above 100 µM throughout. Also, the TGI in the assay on MOLT-4 leukemia, with UO-31 renal and with OVCAR-5 ovarian was above 100 µM in each case.

For the molecule `CSc1nc(SC)c2c(C#N)[nH]nc2n1`, the TGI in the assay on NCI-H522 lung, in the assay with SF-295 CNS, with HCT-15 colon, in the assay on CCRF-CEM leukemia, in the assay on LOX IMVI melanoma and in the assay on IGROV1 ovarian was above 100 µM each time. Besides, the TGI in the assay with SW-620 colon, in the assay with MOLT-4 leukemia and in the assay with UO-31 renal was above 100 µM each time.
